The values that follow come from US20260283977A1, “ADIPOCYTE GROWTH INHIBITOR” (WATANABE OYSTER LABORATORY CO., LTD., priority 2023, published 2026).

Holding throughout (type): cell-based, mouse
In one experiment the test system is C/EBPα. Description: Western blotting, C/EBPα level in 3T3-L1 adipocytes. Conditions: DHMBA 10 μM, day 2 to 4 of differentiation; FIG. 7. The procedure:
(§1) 3T3-L1 preadipocytes (1×10^6 cells/100 mm dish used, in 10 ml of culture fluid) were cultured for three days, at which point they reached sub-confluence, in DMEM containing 10% BCS and 1% P/S. Then, the cells were cultured for two days in a DMEM differentiation culture fluid containing 10% FBS, 1% P/S, 0.5 mM IBMX, and 1 μM dexamethasone. […] After the culture, the culture dish was washed three times with cold PBS (10 ml) to eliminate floating cells and dead cells, and adhering cells were scraped using a cell lysis solution containing protease and protein phosphatase inhibitors (Roche Diagnostics, Indianapolis, IN, USA). Next, the cell lysates were centrifuged for 10 minutes at 17,000×g at 4° C. The concentration of proteins in the supernatant was quantified using Bio-Rad Protein Assay Dye (Bio-Rad Laboratories, Inc., Hercules, CA, USA) with bovine serum albumin as a standard. The extracted protein samples were stored at −80° C. until they were used. […]
(§2) After the incubation, the PVDF membrane was incubated at room temperature for 60 minutes in a horseradish peroxidase-conjugated secondary antibody (Santa Cruz Biotechnology, Inc., mouse sc-2005 or rabbit sc-2305; 1:1,000 dilution). Protein bands transferred to the PVDF membrane were detected on an X-ray film using a chemiluminescent substrate (catalog No. 34577, Thermo Scientific, Rockford, IL, USA). […]
For orientation: A western blot detects proteins with antibodies after separation by electrophoresis.

The subject of experiment [1] is 3T3-L1 adipocytes. Description: Adipogenesis in 3T3-L1 adipocytes (AdipoRed Assay Reagent). Here is the method: 3T3-L1 preadipocytes (10^4 cells/0.2 ml per well of a 96-well plate) were cultured for three days, at which point they reached sub-confluence, in DMEM containing 10% BCS and 1% P/S. After the sub-confluence (on day 0), the cells were cultured in a differentiation-inducing culture fluid containing 10% FBS, 1% P/S, 0.5 mM IBMX, and 1 μM dexamethasone with the inclusion of a vehicle (1% ethanol as the final concentration) or DHMBA (0.1, 1, 10, or 100 μM). Two days later, the culture fluid was replaced with a DMEM culture fluid containing insulin (10 μg/ml) without containing 10% FBS or DHMBA, and then, the cells were cultured for another two days.
In another experiment, the cells were cultured in a differentiation culture fluid not containing DHMBA on day 0 of differentiation-inducing culture. Two days later, the culture fluid was replaced with a DMEM culture fluid containing 10% FBS and insulin (10 μg/ml) that contained any of a vehicle (1% ethanol as the final concentration) and DHMBA (0.1, 1, 10, or 100 μM), and then, the cells were cultured for another two days.
In yet another experiment, to search for the involvement of intracellular signaling factors, the culture fluid was substituted with a culture fluid containing DMEM, which contained 10% FBS and insulin (10 μg/ml), and a vehicle (1% ethanol) or DHMBA (1 or 10 μM) two days after the differentiation culture. The cells were cultured for another two days in a culture fluid containing signaling inhibitory factors, such as genistein (1 or 10 μM), Wortmannin (10 or 100 nM), PD98059 (1 or 10 μM), or Bay 11-7082 (1 or 10 nM). After the cell culture, the amount of intracellular lipid (triglyceride) formation was quantified using AdipoRed Assay Reagent (Lonza, Walkersville, MD, USA) [19 to 21]. Fluorescence was measured at an excitation of 485 nm and an emission of 570 nm using a 96-well plate reader (μQuant, Bio-Tek Instruments).

Experiment [2] deals with 3T3-L1 adipocytes. Description: Lipid accumulation in 3T3-L1 adipocytes (Oil Red O staining). Conditions: DHMBA 0.1, 1, 10 or 100 μM on day 0 and after two days of differentiation culture. Here is the method:
In order to understand the influence of DHMBA on the differentiation of 3T3-L1 preadipocytes, 3T3-L1 preadipocytes (5×10^4 cells/ml per well of a 24-well plate) were cultured for three days, at which point they reached sub-confluence, in 10% bovine calf serum (BCS). After the cells reached sub-confluence (on day 0), the culture fluid was changed to a DMEM differentiation-inducing culture fluid containing 10% FBS, 1% P/S, 0.5 mM IBMX, 1 μM dexamethasone, and insulin (10 μg/ml), and the cells were cultured for another two days. […]
In an additional experiment to understand the effect of DHMBA on the content of lipids in 3T3-L1 adipocytes, a vehicle (1% ethanol as the final concentration) or DHMBA (0.1, 1, 10, or 100 μM) was included in the differentiation-inducing culture fluid to culture the cells from day 0 of the differentiation-inducing culture to four days later. In order to quantify the lipid content (triglycerides) after the cell culture, the cells in the 24-well plate were gently washed twice with PBS and fixed with 4% formaldehyde dissolved in PBS for 30 minutes. […] Furthermore, in order to quantify the lipid content, the Oil Red stain was extracted with isopropanol. […] The eluate was used to measure the absorbance at 510 nm with a spectrophotometer (μQuant, Bio-Tek Instruments).

Another experiment concerns Akt. Description: Western blotting, Akt level in 3T3-L1 adipocytes. Conditions: DHMBA 10 μM, day 2 to 4 of differentiation; FIG. 7. Here is the method: as §1, §2

As to `COc1c(O)cc(CO)cc1O` [DHMBA, 3,5-dihydroxy-4-methoxybenzyl alcohol], the C/EBPα protein level result in the experiment on C/EBPα is given as “reduced”. In addition, the “Adipogenesis (intracellular lipid formation), DHMBA zero to four days after the differentiation” value in the experiment with 3T3-L1 adipocytes [1] (DHMBA 1, 10 or 100 μM (0.1 μM also tested), FIG. 5A) is given as “suppressed adipogenesis”. The “Adipogenesis (intracellular lipid formation), DHMBA zero to two days after the differentiation” value with 3T3-L1 adipocytes [1] (DHMBA 1, 10 or 100 μM, FIG. 5B) is listed as “suppression was also observed”. In the experiment on 3T3-L1 adipocytes [1] (DHMBA 1, 10 or 100 μM, late stage, FIG. 5C), the “Adipogenesis (intracellular lipid formation), DHMBA two to four days after the differentiation” value is recorded as “suppression was also observed”. Further, the “Lipid accumulation (Oil Red O stained images)” value in the experiment with 3T3-L1 adipocytes [2] (FIG. 4A) is “reduced lipid accumulation”. Also, the “Lipid (triglyceride) content in the cells (absorbance at 510 nm)” value with 3T3-L1 adipocytes [2] (FIG. 4B) was “decrease was confirmed”. In addition, the Akt protein level entry with Akt is given as “reduction”.
